According to patent US6573262B2, “Composition and antiviral activity of substituted indoleoxoacetic piperazine derivatives” (priority 2000, dated 2003):

System: HIV-1 single-round infectious reporter virus
Test: microbe, parasite or virus in culture
Assay type: cell-based
Details: for EC50: Human immunodeficiency virus 1, HeLa-CD4/CCR5, 72 h, read-out: EC50 Group from Table 1; for inhibition at 10 µM: Human immunodeficiency virus 1, HeLa-CD4/CCR5, read-out: % Inhibition @ 10 uM

SMILES | EC50 [µM] | inhibition at 10 µM [%]
O=C(C(=O)N1CCN(C(=O)c2ccccc2)CC1)c1c[nH]c2c(-c3ccccc3)ccc(F)c12 [Example 1] | < 1 | > 98
CSc1ccccc1-c1ccc(F)c2c(C(=O)C(=O)N3CCN(C(=O)c4ccccc4)CC3)c[nH]c12 [Example 2] | < 1 | > 98
COc1ccc(-c2ccc(F)cc2)c2[nH]cc(C(=O)C(=O)N3CCN(C(=O)c4ccccc4)CC3)c12 [Example 3] | < 1 | > 98
COc1ccc(-c2ccc(F)c3c(C(=O)C(=O)N4CCN(C(=O)c5ccccc5)CC4)c[nH]c23)cc1 [Example 4] | < 1 | > 98
O=C(C(=O)N1CCN(C(=O)c2ccccc2)CC1)c1c[nH]c2c(-c3ccccn3)ccc(F)c12 [Example 5] | < 1 | > 98
O=C(C(=O)N1CCN(C(=O)c2ccccc2)CC1)c1c[nH]c2c(-c3cccnc3)ccc(F)c12 [Example 6] | < 1 | > 98
COc1ccc(-c2ccccn2)c2[nH]cc(C(=O)C(=O)N3CCN(C(=O)c4ccccc4)CC3)c12 [Example 7] | < 1 | > 98
COc1ccc(-c2cccnc2)c2[nH]cc(C(=O)C(=O)N3CCN(C(=O)c4ccccc4)CC3)c12 [Example 8] | < 1 | > 98
O=C(C(=O)N1CCN(C(=O)c2ccccc2)CC1)c1c[nH]c2c(-c3cncnc3)ccc(F)c12 [Example 9] | < 1 | > 98
COc1ccc(-c2ccco2)c2[nH]cc(C(=O)C(=O)N3CCN(C(=O)c4ccccc4)CC3)c12 [Example 11] | < 1 | > 98
O=C(C(=O)N1CCN(C(=O)c2ccccc2)CC1)c1c[nH]c2c(-c3cccs3)ccc(F)c12 [Example 12] | < 1 | > 98
O=C(C(=O)N1CCN(C(=O)c2ccccc2)CC1)c1c[nH]c2c(-c3ccsc3)ccc(F)c12 [Example 13] | < 1 | > 98
O=C(C(=O)N1CCN(C(=O)c2ccccc2)CC1)c1c[nH]c2c(-c3nccs3)ccc(F)c12 [Example 14] | < 1 | > 98
COc1ccc(-c2nccs2)c2[nH]cc(C(=O)C(=O)N3CCN(C(=O)c4ccccc4)CC3)c12 [Example 15] | < 1 | > 98
O=C(C(=O)N1CCN(C(=O)c2ccccc2)CC1)c1c[nH]c2c(-c3ccc(Cl)s3)ccc(F)c12 [Example 16] | < 1 | > 98
O=C(C(=O)N1CCN(C(=O)c2ccccc2)CC1)c1c[nH]c2c(-c3cnco3)ccc(F)c12 [Example 17] | < 1 | > 98
O=C(C(=O)N1CCN(C(=O)c2ccccc2)CC1)c1c[nH]c2c(-c3nc4ccccc4o3)ccc(F)c12 [Example 18] | < 1 | > 98
COc1ccc(-c2cc3ccccc3s2)c2[nH]cc(C(=O)C(=O)N3CCN(C(=O)c4ccccc4)CC3)c12 [Example 19] | < 1 | > 98
O=C(C(=O)N1CCN(C(=O)c2ccccc2)CC1)c1c[nH]c2c(-c3nn[nH]n3)ccc(F)c12 [Example 20] | < 1 | > 98
Cn1nnc(-c2ccc(F)c3c(C(=O)C(=O)N4CCN(C(=O)c5ccccc5)CC4)c[nH]c23)n1 [Example 21] | < 1 | > 98

SMILES | EC50 [µM] | inhibition at 10 µM [%]
COC(=O)Cn1nnc(-c2ccc(F)c3c(C(=O)C(=O)N4CCN(C(=O)c5ccccc5)CC4)c[nH]c23)n1 [Example 22] | < 1 | > 98
CCn1nnc(-c2ccc(F)c3c(C(=O)C(=O)N4CCN(C(=O)c5ccccc5)CC4)c[nH]c23)n1 [Example 23] | < 1 | > 98
CCCn1nnc(-c2ccc(F)c3c(C(=O)C(=O)N4CCN(C(=O)c5ccccc5)CC4)c[nH]c23)n1 [Example 24] | < 1 | > 98
O=C(C(=O)N1CCN(C(=O)c2ccccc2)CC1)c1c[nH]c2c(-c3nnn(Cc4ccccc4)n3)ccc(F)c12 [Example 25] | < 1 | > 98
C=CCn1nnc(-c2ccc(F)c3c(C(=O)C(=O)N4CCN(C(=O)c5ccccc5)CC4)c[nH]c23)n1 [Example 26] | < 1 | > 98
N/C(=N\O)c1ccc(F)c2c(C(=O)C(=O)N3CCN(C(=O)c4ccccc4)CC3)c[nH]c12 [Example 27] | < 1 | > 98
O=C(C(=O)N1CCN(C(=O)c2ccccc2)CC1)c1c[nH]c2c(-c3noc(=O)[nH]3)ccc(F)c12 [Example 28] | < 1 | > 98
COc1nc(-c2ccc(F)c3c(C(=O)C(=O)N4CCN(C(=O)c5ccccc5)CC4)c[nH]c23)no1 [Example 29] | < 1 | > 98
O=C(C(=O)N1CCN(C(=O)c2ccccc2)CC1)c1c[nH]c2c(/C=N/O)ccc(F)c12 [Example 30] | < 1 | > 98
O=C(O)CO/N=C/c1ccc(F)c2c(C(=O)C(=O)N3CCN(C(=O)c4ccccc4)CC3)c[nH]c12 [Example 31] | < 1 | > 98
O=C(C(=O)N1CCN(C(=O)c2ccccn2)CC1)c1c[nH]c2c(-c3nn[nH]n3)ccc(F)c12 [Example 32] | < 1 | > 98
C[C@@H]1CN(C(=O)c2ccccc2)CCN1C(=O)C(=O)c1c[nH]c2c(-c3nn[nH]n3)ccc(F)c12 [Example 33] | < 1 | > 98
C[C@@H]1CN(C(=O)c2ccccn2)CCN1C(=O)C(=O)c1c[nH]c2c(-c3nn[nH]n3)ccc(F)c12 [Example 34] | < 1 | > 98
O=C(Nc1cccnc1)c1ccc(F)c2c(C(=O)C(=O)N3CCN(C(=O)c4ccccc4)CC3)c[nH]c12 [Example 35] | < 1 | > 98
O=C(NC1=NCCS1)c1ccc(F)c2c(C(=O)C(=O)N3CCN(C(=O)c4ccccc4)CC3)c[nH]c12 [Example 36] | < 1 | > 98
Cc1cc(NC(=O)c2ccc(F)c3c(C(=O)C(=O)N4CCN(C(=O)c5ccccc5)CC4)c[nH]c23)on1 [Example 37] | < 1 | > 98
O=C(Nc1ccccn1)c1ccc(F)c2c(C(=O)C(=O)N3CCN(C(=O)c4ccccc4)CC3)c[nH]c12 [Example 38] | < 1 | > 98
O=C(Nc1ccncc1)c1ccc(F)c2c(C(=O)C(=O)N3CCN(C(=O)c4ccccc4)CC3)c[nH]c12 [Example 39] | < 1 | > 98
O=C(NS(=O)(=O)c1ccccc1)c1ccc(F)c2c(C(=O)C(=O)N3CCN(C(=O)c4ccccc4)CC3)c[nH]c12 [Example 40] | < 1 | > 98
O=C(Nc1nc2ccccc2[nH]1)c1ccc(F)c2c(C(=O)C(=O)N3CCN(C(=O)c4ccccc4)CC3)c[nH]c12 [Example 41] | < 1 | > 98

SMILES | EC50 [µM] | inhibition at 10 µM [%]
NC(=O)c1ccc(F)c2c(C(=O)C(=O)N3CCN(C(=O)c4ccccc4)CC3)c[nH]c12 [Example 42] | < 1 | > 98
CN(C)CCNC(=O)c1ccc(F)c2c(C(=O)C(=O)N3CCN(C(=O)c4ccccc4)CC3)c[nH]c12 [Example 44] | < 1 | 97
O=C(NCc1ccccc1)c1ccc(F)c2c(C(=O)C(=O)N3CCN(C(=O)c4ccccc4)CC3)c[nH]c12 [Example 45] | < 1 | > 98
CONC(=O)c1ccc(F)c2c(C(=O)C(=O)N3CCN(C(=O)c4ccccc4)CC3)c[nH]c12 [Example 46] | < 1 | > 98
CNC(=O)c1ccc(F)c2c(C(=O)C(=O)N3CCN(C(=O)c4ccccc4)CC3)c[nH]c12 [Example 47] | < 1 | > 98
O=C(NCCc1c[nH]c2ccccc12)c1ccc(F)c2c(C(=O)C(=O)N3CCN(C(=O)c4ccccc4)CC3)c[nH]c12 [Example 48] | < 1 | > 98
O=C(NCCc1c[nH]cn1)c1ccc(F)c2c(C(=O)C(=O)N3CCN(C(=O)c4ccccc4)CC3)c[nH]c12 [Example 49] | < 1 | > 98
O=C(NCc1ccco1)c1ccc(F)c2c(C(=O)C(=O)N3CCN(C(=O)c4ccccc4)CC3)c[nH]c12 [Example 50] | < 1 | > 98
O=C(NCc1cccs1)c1ccc(F)c2c(C(=O)C(=O)N3CCN(C(=O)c4ccccc4)CC3)c[nH]c12 [Example 51] | < 1 | > 98
O=C(NCCN1CCOCC1)c1ccc(F)c2c(C(=O)C(=O)N3CCN(C(=O)c4ccccc4)CC3)c[nH]c12 [Example 52] | < 1 | > 98
O=C(NCc1nc2ccccc2[nH]1)c1ccc(F)c2c(C(=O)C(=O)N3CCN(C(=O)c4ccccc4)CC3)c[nH]c12 [Example 53] | < 1 | 
O=C(Nc1nn[nH]n1)c1ccc(F)c2c(C(=O)C(=O)N3CCN(C(=O)c4ccccc4)CC3)c[nH]c12 [Example 54] | < 1 | > 98
CS(=O)(=O)NC(=O)c1ccc(F)c2c(C(=O)C(=O)N3CCN(C(=O)c4ccccc4)CC3)c[nH]c12 [Example 60] | < 1 | > 98
CS(=O)(=O)NC(=O)c1cccc2c(C(=O)C(=O)N3CCN(C(=O)c4ccccc4)CC3)c[nH]c12 [Example 61] | 1 to 5 | 75
O=C(C(=O)N1CCN(C(=O)c2ccccc2)CC1)c1c[nH]c2c(C(=O)NS(=O)(=O)c3ccccc3)cccc12 [Example 62] | 1 to 5 | 74
O=C(C(=O)N1CCN(C(=O)c2ccccc2)CC1)c1c[nH]c2c(C(=O)Nc3nnn[nH]3)cccc12 [Example 63] | < 1 | 96
CNC(=O)c1cccc2c(C(=O)C(=O)N3CCN(C(=O)c4ccccc4)C[C@H]3C)c[nH]c12 [Example 64] | < 1 | > 98
C[C@@H]1CN(C(=O)c2ccccc2)CCN1C(=O)C(=O)c1c[nH]c2c(C(=O)N(C)C)cccc12 [Example 65] | < 1 | 70
